{
  "source": "patent US20250195551A1",
  "about": "(L4 BIO LLC, priority 2023, published 2025)",
  "system": "pentylenetetrazol (PTZ)-induced ictal brain activity",
  "assay": "Modulation of pentylenetetrazol (PTZ)-induced seizures, BOLD fMRI in rats",
  "assay_type": "in vivo",
  "settings": "3 mg/kg, positive control; anesthetized male Wistar rats",
  "protocol": "Functional MRI (fMRI) was performed using a high-field preclinical MRI system in anesthetized male Wistar rats in order to determine the modulation of pentylenetetrazol (PTZ)-induced ictal brain activity by chronic treatment with test compound (TC). Animals treated with vehicle and 3 mg/kg Alprazolam served as controls. A schematic of the study design can be seen in FIG. 6. […] Various physiological parameters were also measured throughout the experiment including body weight, CO2 levels, blood pH, and heart rate.",
  "note": "“Also recorded” adds a separate entry of the source.",
  "data": [
    {"smiles": "Cc1nnc2n1-c1ccc(Cl)cc1C(c1ccccc1)=NC2", "note": "[Alprazolam]", "values": [
      {"measurement": "PTZ-induced ictal brain activity (BOLD fMRI area under the curve) vs vehicle", "value": "effectively cancelled PTZ-induced brain activity; also recorded: Vehicle vs. Alprazolam in all"}
    ]}
  ]
}
